Where a SMILES comes first, the peptide text is derived from it. The star is where a group is joined. Octanoyl(6-Me) = CCC(C)CCCCC(=O)*
What was measured:
[1] = Tryptophan fluorescence and acrylamide quenching with DPPC membranes; conditions: second symbol of cancer mimic/healthy mimic; also: key: +, peptide effect; ++, increasing peptide effect; +++: etc; ++++: etc; −, no peptide effect
Protocol: (§1) Appropriate amounts of respective phospholipid stock solution were dried under a stream of nitrogen and stored in vacuum overnight to completely remove organic solvents. The dry lipid film was then dispersed in phosphate buffered saline (PBS, 20 mM NaPi, 130 mM NaCl, pH 7.4) and hydrated at a temperature well above the gel to fluid phase transition of the respective phospholipid under intermittent vigorous vortex-mixing. The lipid concentration was 0.1 weight % for calorimetric and 2 % for leakage experiments. Hydration was carried out in presence or absence of peptides at a lipid-to-peptide ratio of 25:1 and 12.5:1 using a protocol described for POPS (Jiménez-Monreal et al. [1998]), DPPS (Jing et al. [2005]) and DPPC (Sevcsik et al. [2007]). Briefly hydration of POPS films occurred at 30 °C, DPPS at 65 °C and DPPC at 50 °C, for 2 h with vortexing for 1 min every 15 min. The hydration of the lipid mixtures DPPS/DPPC 1:5 and DPPS/DPPC 1:1 were performed at 65 °C for 2 h by vortexing accompanied by one freeze–thaw cycle every 15 min. The fully hydrated samples were stored for at least 1 h at room temperature until measurement.
(§2) Fluorescence spectroscopy experiments were performed using a SPEX Fluoro Max-3 spectrofluorimeter (Jobin–Yvon, Longjumeaum, France) and spectra were analyzed with Datamax software.
(§3) Tryptophan fluorescence spectra were obtained at room temperature using an excitation wavelength of 282 nm and a slit width of 5 nm for excitation and emission monochromators. Quenching of Tryptophan was carried out in the presence and absence of phospholipid liposomes (lipid-to-peptide ratio 25:1) using 0.1, 0.4 and 0.7 M acrylamide. The data were analyzed according to the Stern–Volmer equation (Eq. 2):2 F0F0FF=1+KSVQ where F0 and F represent the fluorescence emission intensities in the absence and presence of the quencher molecule (Q) and KSV is the Stern–Volmer quenching constant, which is a quantitative measure for the accessibility of tryptophan to acrylamide (Tao and Cho [1979]).

[2] = Differential scanning calorimetry of DPPC/DPPS 1:1 liposomes; conditions: lipid to peptide 25:1
Protocol: as §1
(§4) DSC experiments were performed with a differential scanning calorimeter (VP-DSC) from MicroCal, Inc. (Northhampton, MA, USA). Heating scans were performed at a scan rate of 30 °C/h (pre-scan thermostating 30 min) with a final temperature of approximately 10 °C above the main transition temperature (Tm) and cooling scans at the same scan rate (pre-scan thermostating 1 min) with a final temperature approximately 20 °C below Tm. The heating/cooling cycle was performed three times. Enthalpies were calculated by integration of the peak areas after normalization to phospholipid concentration and baseline adjustment using the MicroCal Origin software (VP-DSC version). The phase transition temperature was defined as the temperature at the peak maximum (McElhaney [1982]).

[3] = ANTS/DPX leakage from POPC LUVs; conditions: for ANTS/DPX release from POPC liposomes: 2–8 µM peptide; for Permeability—ANTS/DPX leakage, healthy mimic: second symbol of cancer mimic/healthy mimic; as to Permeability—ANTS/DPX leakage, healthy mimic: key: +, peptide effect; ++, increasing peptide effect; +++: etc; ++++: etc; −, no peptide effect
Protocol: [The procedure below names another target; the source lists this target under the same test.] as §1
(§5) Leakage of aqueous contents from liposomes was determined using the 8-aminonaphthalene-1,3,6-trisulfonic acid/p-xylene-bis-pyridinium bromide (ANTS/DPX) assay (Ellens et al. [1985]). Lipid films (preparation see above) were hydrated with 12.5 mM ANTS, 45 mM DPX, 68 mM NaCl, 10 mM HEPES (4-(2-hydroxyethyl)-1-piperazineethanesulfonic acid) at pH 7.4 following a standard procedure. Subsequently, the dispersions were extruded 20 times through a polycarbonate filter (Millipore-Isopore™) of 0.1 µm pore size to obtain LUVs. Unilamellarity and size were tested by X-ray and dynamic light scattering, respectively. The ANTS/DPX encapsulating vesicles were separated from free ANTS/DPX by exclusion chromatography using a column filled with Sephadex™ G-75 (Amesham Biosciences) fine gel swollen in an isosmotic buffer (10 mM HEPES, 140 mM NaCl, pH 7.4). The void volume fractions were collected and the phospholipid concentration was determined by phosphate analysis (Bartlett [1959]; Broekhuyse [2005]). The fluorescence measurements were performed in 2 mL of the isosmotic buffer in a quartz cuvette at 37 °C. Aliquots of LUVs were diluted with the isosmotic buffer to a final lipid concentration of 50 µM. Fluorescence spectra were obtained at 37 °C using an excitation wavelength of 360 nm, an emission wavelength of 530 nm and a slit width of 5 nm for both excitation and emission monochromators. Fluorescence emission was recorded as a function of time before and after the addition of incremental amounts of peptide. The fluorescence increase due to leakage and subsequent dilution of quenched dye was measured after addition of peptides. Peptides were added to final concentrations of 2, 4 and 8 µM, corresponding to peptide-to-lipid molar ratios of 1:25, 1:12.5 and 1:6.25, respectively. Data are presented in terms of fluorescence intensity (IF and were calculated using Eq. 3:3 IF=F-F0/Fmax-F0 F is the measured fluorescence, F0 the initial fluorescence without peptide and Fmax the fluorescence corresponding to 100 % leakage gained by addition of 1 % Triton X-100.

[4] = Tryptophan fluorescence and acrylamide quenching with DPPS membranes; set-up: key: +, peptide effect; ++, increasing peptide effect; +++: etc; ++++: etc; −, no peptide effect; conditions: first symbol of cancer mimic/healthy mimic (PS)
Protocol: as §1, §2, §3

[5] = Differential scanning calorimetry of DPPS liposomes; conditions: for Bilayer perturbation—DSC, cancer mimic: first symbol of cancer mimic/healthy mimic; as to Bilayer perturbation—DSC, cancer mimic: key: +, peptide effect; ++, increasing peptide effect; +++: etc; ++++: etc; −, no peptide effect
Protocol: as §1, §4

[6] = ANTS/DPX leakage from POPS LUVs; conditions: for ANTS/DPX release from POPS vesicles: 50 µM lipid LUVs; for Permeability—ANTS/DPX leakage, cancer mimic: first symbol of cancer mimic/healthy mimic; for specificity/selectivity for cancer over non-cancer mimic, ANTS/DPX leakage: POPS versus POPC LUVs; as to Permeability—ANTS/DPX leakage, cancer mimic: key: +, peptide effect; ++, increasing peptide effect; +++: etc; ++++: etc; −, no peptide effect
Protocol: as §1, §5

[7] = test system: melanoma cell line SBcl-2; experiment: Propidium iodide-uptake toxicity assay, melanoma SBcl-2; assay type: cell-based, human; set-up: Toxicity—PI uptake, cancer cells / Cancer specificity: key: +, peptide effect; ++, increasing peptide effect; +++: etc; ++++: etc; −, no peptide effect; conditions: for Toxicity—PI uptake, cancer cells: first symbol of cancer cells/healthy cells
Text: (§6) Epidermis was separated. […] All cell cultures were periodically checked for mycoplasma.

[8] = Differential scanning calorimetry of DPPC/DPPS 5:1 liposomes; conditions: lipid to peptide 25:1, split transition given as peak/peak
Protocol: as §1, §4

[9] = Differential scanning calorimetry of DPPC liposomes; conditions: for Bilayer perturbation—DSC, healthy mimic: second symbol of cancer mimic/healthy mimic
Protocol: as §1, §4

E. coli = conditions: ref Zweytick et al. [2011b]; cited from earlier work
Text: It has been reported by Yang et al. (Yang et al. [2004]) that a prerequisite for antitumor but not for antibacterial peptides derived of bovine lactoferrin is a minimum net charge close to +7 and to consist of at least 14 amino acids.

[10] = test system: melanoma metastases WM164; experiment: Propidium iodide-uptake toxicity assay, melanoma metastases WM164; assay type: cell-based, human; conditions: 20 µM peptide, 8 h
Text: as §6

[11] = test system: differentiated non-tumorigenic melanocytes; conditions: for melanocytes killed (PI-uptake): 20 µM peptide, 8 h, media containing serum
Protocol: Human melanocytes used as healthy control cells were isolated from foreskin. Foreskin was cut into small pieces and incubated with 0.3 % trypsin (PAA) overnight at 4 °C and for 1 h at 37 °C. Epidermis was separated. Cells were mechanically removed from the cell layer and centrifuged at 300 g for 3 min. The pellet was re-suspended and cells further cultured in melanocyte growth medium (Biomedica, Vienna, Austria, PromoCell GmbH, Heidelberg, Germany). All cells were kept in a 5 % CO2 atmosphere at 37 °C. At 90 % confluence cell-culture flasks were passaged after detachment with accutase (PAA, Pasching Austria). All cell cultures were periodically checked for mycoplasma.
Cells were collected, re-suspended in media and diluted to a concentration of 10^6 cells/ml. Aliquots of 10^5 cells/100 µl media were incubated with different amount of peptides (0–80 µM) for 8 h at 37 °C and 5 % CO2. Propidium iodide (PI) (2 µl/10^5cells of 50 µg/ml, Invitrogen, Camarillo, CA, USA) was added and cells were again incubated for 5 min at room temperature in the dark. Excitation and emission wavelengths were 536 and 617 nm, respectively. Cytotoxicity was calculated from the percentage of PI positive cells in media alone (P0) and in the presence of peptide (PX). […] Triton-X-100 was used to determine 100 % of PI positive cells (P100).1 %PI-uptake=100∗(PX-P0)/(P100-P0)

RBCs = conditions: 2.5 % RBCs, 500 µg peptide/ml; ref Zweytick et al. [2011b]; cited from earlier work
Text: The correlation of activity against bacteria with activity on bacterial model systems for lactoferricin derived peptides and their N-acylated derivatives was shown recently (Zweytick et al. [2011b]).

[12] = 50 µM lipid LUVs, pH 7.4, 37 °C
[13] = 25:1 lipid-to-peptide molar ratio
[14] = 8 µM peptide (peptide-to-lipid 1:6.25), 10 mM HEPES 140 mM NaCl pH 7.4, 37 °C, fluorescence
[15] = DPPC liposomes in PBS pH 7.4, lipid to peptide 25:1, scan rate 30 °C/h
[16] = DPPC liposomes, lipid to peptide 12.5:1
[17] = DPPC liposomes, lipid to peptide 25:1
[18] = DPPC liposomes, lipid to peptide 25:1, transition half-width
[19] = DPPS liposomes, lipid to peptide 25:1, split transition given as peak/peak

Compound | Bilayer affinity—quenching, healthy mimic [1] | T1/2 [2] [°C] | Tm [2] [°C] | ΔH m [2] [kcal/mol] | ANTS/DPX release from POPC liposomes [3, 12] [%] | Permeability—ANTS/DPX leakage, healthy mimic [3] | Bilayer affinity—quenching, cancer mimic [4] | reduction of the main transition enthalpy of DPPS [5, 13] [%] | Bilayer perturbation—DSC, cancer mimic [5] | ANTS/DPX release from POPS vesicles [6, 14] | Permeability—ANTS/DPX leakage, cancer mimic [6] | T1/2 [8] [°C] | Tm [8] [°C] | ΔH m [8] [kcal/mol] | ΔH pre [9, 15] [kcal/mol] | Tm [9, 17] [°C] | Tpre [9, 17] [°C] | ΔH m [9, 17] [kcal/mol] | T1/2 [9, 18] [°C] | Bilayer perturbation—DSC, healthy mimic [9] | further results
PFWRIRIRR-NH2 [LF11-322] | − | 2.42 | 44.2 | 8.3 | < 5 | − | ++ | 10 | + | ~ 20% | + | 0.80 | 42.4 | 10.1 | 1.1 | 41.3 | 34.8 | 9.0 | 0.17 | − | T1/2 ([5]; DPPS liposomes, lipid to peptide 12.5:1): 2.48 °C; killing (PI-uptake) of SBcl-2 ([7]; 80 µM peptide, 8 h, media containing serum, 37 °C): < 10%; T1/2 [9, 16]: 0.26 °C; Tm [9, 16]: 41.3 °C; Tpre [9, 16]: 34.5 °C; ΔH m [9, 16]: 9.2 kcal/mol; ΔH pre [9, 16]: 1.0 kcal/mol; minimal inhibitory concentration for E. coli (E. coli): 8 to 16 µg/mL; specificity, PI-uptake ratio melanoma metastases WM164 versus melanocytes [10]: twofold
PFWRIRIRRPRRIRIRWFP-NH2 [R-DIM-P-LF11-322, retro repeat derivative: LF11-322-proline-LF11-322 retro] | − | 1.08 | 42.4 | 7.9 | < 5 | − | ++ | 70 | +++ | 90–100% | +++ | 0.83 | 42.2 | 8.2 | 1.5 | 41.3 | 34.5 | 9.1 | 0.25 | − | Toxicity—PI uptake, healthy cells [11]: −; melanocytes killed (PI-uptake) [11]: < 1%; decrease of the transition temperature of DPPS [5, 13]: ~5 °C; T1/2 [5, 19]: 1.53 °C; Tm [5, 19]: 47.9 °C; ΔH m [5, 19]: 3.1 kcal/mol; specificity/selectivity for cancer over non-cancer mimic, ANTS/DPX leakage [6]: up to 20 fold; specificity for cancer cells, PI-uptake ratio melanoma SBcl-2 versus melanocytes ([7]; 20 µM peptide, 8 h): higher than 1,000 fold; PI positive SBcl-2 cells ([7]; 20 µM peptide, 8 h, media containing serum): more than 80%; Cancer specificity ([7]; cancer cells/healthy cells): ++++; Toxicity—PI uptake, cancer cells [7]: +++; specificity, PI-uptake ratio melanoma metastases WM164 versus melanocytes [10]: > 500 fold
CCC(C)CCCCC(=O)N1CCC[C@H]1C(=O)N[C@@H](Cc1ccccc1)C(=O)N[C@@H](Cc1c[nH]c2ccccc12)C(=O)N[C@@H](CCCNC(=N)N)C(=O)N[C@H](C(=O)N[C@@H](CCCNC(=N)N)C(=O)N[C@H](C(=O)N[C@@H](CCCNC(=N)N)C(=O)N[C@@H](CCCNC(=N)N)C(N)=O)[C@@H](C)CC)[C@@H](C)CC (stereo partly drawn) [6-MO-LF11-322] ({Octanoyl(6-Me)}-PFWRIRIRR-NH2) | + | 2.45 | 43.3 | 5.4 |  | + | ++ | 35 | ++ | ~70% | ++ |  |  |  | 0.4 |  | 34.6 | 9.1 | 0.26 | + | Toxicity—PI uptake, healthy cells [11]: +; melanocytes killed (PI-uptake) [11]: ~ 15%; leakage of POPC vesicles ([3]; peptide-to-lipid molar ratio of 1:6.25 (8 µM), 50 µM lipid LUVs, pH 7.4, 37 °C): about 20%; T1/2 [5, 19]: 2.24 °C; ANTS/DPX release from POPS vesicles ([6]; 4 µM peptide (peptide-to-lipid 1:12.5), pH 7.4, 37 °C): ~ 30%; specificity/selectivity for cancer over non-cancer mimic, ANTS/DPX leakage [6]: threefold; specificity for cancer cells, PI-uptake ratio melanoma SBcl-2 versus melanocytes ([7]; 20 µM peptide, 8 h): threefold to fourfold; IC50 ([7]; PI-uptake, cancer cells, 8 h, media containing serum): ~20 µM; specificity for cancer cells after 1 h ([7]; after 1 h, data not shown): sevenfold; Toxicity—PI uptake, cancer cells [7]: ++; lysis of RBCs (RBCs): 20%

From publication PMC4155172, “Killing of melanoma cells and their metastases by human lactoferricin derivatives requires interaction with the cancer marker phosphatidylserine” (Biometals, 2014)
